# Results as given in US8163702B2, “Treatment of melanoma” (SciClone Pharmaceuticals, Inc., priority 2006, dated 2012).
# Key:
# spleen lymphocytes = details: cited from earlier work
# B16 melanoma = B16 melanoma tumor growth, tumor weight and survival in C57/Bl6 mice, i.p. treatment (Example 1); assay type: in vivo; details: for animals surviving: After 26 days
# Protocol: Tumors were induced by injecting 1×10^6 B16 melanoma cells subcutaneously in the hind leg of C57/Bl6 syngeneic mice. Mice were randomized into 5 groups of 10 animals and treated with SCV-07 at doses of 0.001, 0.01, or 0.10 mg/kg administered daily i.p. for 3 consecutive days for 2 weeks, starting 3 days after tumor implantation. Control groups were treated with saline or dacarbazine (DTIC) at a dose of 50 mg/kg i.p. for 3 days. Tumor growth was assessed every 3 days by a caliper and tumor weight was measured upon death.
# Mice were injected with B16 melanoma cells and divided into 5 groups of 10 mice each. Control mice were given injections of saline or dacarbazine (DTIC). The effects of different doses of SCV-07 were examined with respect to tumor growth rate and survival time.
# B16 cell line [1] = test: Apoptosis by DNA flow cytometric analysis (propidium iodide); assay type: cell-based, murine; details: propidium iodide flow cytometry
# Protocol: Apoptosis was assessed by DNA flow cytometric analysis. At each concentration of SCV-07, adherent cells were detached from the plates by trypsinization, pooled with the floating cells and fixed with 50% acetone:methanol 1:4 in PBS. The cells were suspended (1×10^6/ml) in PBS containing 50 μg/ml of propidium iodide (PI) and 100 KU/ml of RNase and incubated in the dark at room temperature for 30 min. The DNA content per cell was evaluated by PI fluorescence measured on a linear scale using a FACScan flow cytometer (Becton & Dickinson, San Jose, Calif.). Apoptotic cells show a diminished staining, in the red fluorescence channel, below the G0/G1 population of normal diploid cells, and are represented by a broad hypodiploid peak due to DNA fragmentation following apoptotic events. This is easily distinguishable from the narrow peak of cells with diploid DNA content. The fraction of apoptotic cells was therefore calculated by integrating the pre-G1 peak.
# thymocyte and lymphocyte = details: cited from earlier work
# bone marrow cells = details: cited from earlier work
# [2] = 5-FU-immune-suppressed animals; immunization with sheep red blood cells; cited from earlier work
# T helper cells = details: previous studies; cited from earlier work
# B16 cell line [3] = test: In vitro cell sensitivity: cell proliferation and viability by trypan blue dye exclusion; assay type: cell-based, murine
# Protocol: In vitro cell sensitivity studies were performed on a B16 cell line. Subconfluent melanoma cells were harvested, suspended in complete medium and seeded into 24-well plates (10^5 cells in a final volume of 2 ml/well). The cells were treated in triplicate wells for 24, 48 or 72 hr of culture with graded concentrations of SCV-07 ranging from 0.1 to 100 μg/ml. Cell proliferation and viability were determined by the trypan blue dye exclusion method by manually counting the cells with a hemocytometer.
smiles,measurement,setting,value
"N[C@H](CCC(=O)N[C@@H](Cc1c[nH]c2ccccc12)C(=O)O)C(=O)O [SCV-07, γ-D-glutamyl-L-tryptophan]",Con-A-induced interleukin-2 (IL-2) production and IL-2 receptor expression,spleen lymphocytes,increases
same,animals surviving,B16 melanoma; SCV-07 highest dose (0.10 mg/kg i.p.),21%
same,animals surviving,B16 melanoma; SCV-07 lower doses,no surviving animals
same,MEAN TUMOR VOLUME,"B16 melanoma; DAY 10 after tumor inoculation, SCV-07 0.001 mg/kg i.p.",540 ± 180 mm^3
same,MEAN TUMOR VOLUME,"B16 melanoma; DAY 10 after tumor inoculation, SCV-07 0.01 mg/kg i.p.",490 ± 120 mm^3
same,MEAN TUMOR VOLUME,"B16 melanoma; DAY 10 after tumor inoculation, SCV-07 0.10 mg/kg i.p.",420 ± 150 mm^3
same,MEAN TUMOR VOLUME,"B16 melanoma; DAY 17 after tumor inoculation, SCV-07 0.001 mg/kg i.p.",625 ± 270 mm^3
same,MEAN TUMOR VOLUME,"B16 melanoma; DAY 17 after tumor inoculation, SCV-07 0.01 mg/kg i.p.",581 ± 210 mm^3
same,MEAN TUMOR VOLUME,"B16 melanoma; DAY 17 after tumor inoculation, SCV-07 0.10 mg/kg i.p.",495 ± 190 mm^3
same,MEAN TUMOR VOLUME,"B16 melanoma; DAY 24 after tumor inoculation, SCV-07 0.001 mg/kg i.p.",880 ± 240 mm^3
same,MEAN TUMOR VOLUME,"B16 melanoma; DAY 24 after tumor inoculation, SCV-07 0.01 mg/kg i.p.",720 ± 150 mm^3
same,MEAN TUMOR VOLUME,"B16 melanoma; DAY 24 after tumor inoculation, SCV-07 0.10 mg/kg i.p.",533 ± 170 mm^3
same,tumor growth,"B16 melanoma; SCV-07 0.001, 0.01, 0.10 mg/kg i.p.",inhibited tumor growth in a dose-dependent manner
same,mean tumor weight lower,"B16 melanoma; highest dose of SCV-07 (0.10 mg/kg i.p.), weight upon death",35%
same,mean tumor weight lower,"B16 melanoma; lower doses of SCV-07 (0.001, 0.01 mg/kg i.p.)",20%
same,percentage of apoptotic cell death,B16 cell line [1],could not evidence any significant effect
same,Con-A-induced thymocyte and lymphocyte proliferation,thymocyte and lymphocyte,increases
same,expression of Thy-1.2,bone marrow cells,stimulates
same,immunostimulatory effect,[2],strong immunostimulatory effect
same,IFN-γ production by thymic and spleen cells and circulating level in serum,T helper cells,increased
same,T helper cell polarization,T helper cells,stimulates a shift of T helper cells towards a TH1-like immune response
same,effect on cell growth by direct cell counts,"B16 cell line [3]; 24 and 48 hrs of culture, 0.1 to 100 μg/ml",dose-dependent inhibitory effect on cell growth
same,effect on number of viable cells,B16 cell line [3]; higher concentration (100 μg/ml),toxic effects with a dramatic decrease in the number of viable cells
same,effect on cell growth,B16 cell line [3]; low concentration,substantially cytostatic
